Data reported in patent US4416877A, “Anti-atherosclerotic pharmaceutical compositions containing diphosphonate compounds” (priority 1979, dated 1983).
Like-named read-outs stand apart in the source and are kept apart here.

Tests used:
lipid metabolism = experiment: Effects of diphosphonates on lipid metabolism in normal rats (serum lipids, α/β cholesterol); type: in vivo, male Wistar rats; conditions: for change in vivo at 200 mg/kg/day: Rattus norvegicus, po, normal rats (N), 200 mg/kg/day p.o.
How it was run: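 Normal male Wistar rats (~200 g, 4–5/group) dosed orally with diphosphonates 200 mg/kg/day for 4–21 days, in 24 mM bicarbonate buffer or corn oil. Serum taken after overnight fast; free fatty acids, triglycerides, phospholipids and heparin/CaCl2-precipitated β-lipoprotein cholesterol measured. Values given as % of control; <15% difference deemed non-significant.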

[1] = tested on: alpha/beta cholesterol ratio; experiment: Comparison of clofibrate, gemfibrozil and fenofibrate to compound 16: alpha/beta cholesterol ratio in normal Wistar rats; type: in vivo; conditions: 100 mg/kg for 10 days, n = 5
Procedure: It should be noted that these diphosphonate compounds are different and novel in comparison to the classical hypolipidemic compounds as illustrated in Table V. The diphosphonate ester used for comparison was the only one to increase the alpha/beta cholesterol ratio in control rats.
Each drug was administered at 100 mg/kg for 10 days

lipoprotein cholesterol [2] = experiment: Lipoprotein cholesterol changes in normal rats treated for 90 days; type: in vivo, male and female rats
Procedure: Treating male and female rats with 40, 400 and 800 mg/kg of compound 16 per day for 90 days produced a sustained dose response augmentation in serum high density lipoprotein cholesterol (HDL-C or α-cholesterol) as high as 220% above controls at high dose level (Table VI).
*Plasma was pooled from 5 animals of each group and analyzed.

lipoprotein cholesterol [3] = experiment: Lipoprotein cholesterol in cholesterol pre-fed rabbits; type: in vivo; conditions: 200 mg/kg per day, 4 months, n = 5
Source text: Animals were fed a cholesterol rich diet for 8 weeks before treatment was
started which continued for 4 months without cholesterol supplement.

liver cholesterol = experiment: Liver cholesterol clearing activity in cholesterol pre-fed rabbits; type: in vivo; conditions: 4 months; for Liver Cholesterol / Liver Cholesterol Free/Ester Ratio / Liver Phospholipids / Liver Total Lipids / Liver/Body Weight % Change: n = 5
α/β cholesterol ratio = experiment: Lipoprotein changes produced by one dose in a Cynomolgus monkey; type: in vivo; conditions: for α/β cholesterol ratio: 250 mg/kg p.o.
lipoprotein cholesterol [4] = experiment: Lipoprotein changes in normal Cynomolgus monkeys treated during 60 days; type: in vivo; conditions: for Total Cholesterol / alpha Cholesterol / alpha/beta Cholesterol Ratio / beta Cholesterol: n = 7
Procedure: To further test the long term efficacity of compound 16, normal male and female Cynomolgus monkeys were treated during 60 days (Table XIII).
Dose: 25 mg/kg/day for 45 days 50 mg/kg/day for last 15 days

[5] = 60 days, 50 mg/kg/day for last 15 days

## COP(=O)(OC)OC(c1ccc(Cl)cc1)P(=O)(OC)OC (stereo not drawn) [Compound 16, Dimethyl α(dimethoxyphosphinyl) p-chlorobenzyl phosphate]
Lipid metabolism; read-out: Serum Chol. α/β (% control values)
  change in vivo at 200 mg/kg/day: 121%
Lipid metabolism; read-out: Serum Free Fatty Acids (% control values)
  change in vivo at 200 mg/kg/day: -50%
Lipid metabolism; read-out: Serum Phospholipids (% control values)
  change in vivo at 200 mg/kg/day: 26%
Lipid metabolism; read-out: Serum Triglycerides (% control values)
  change in vivo at 200 mg/kg/day: < 15%
Lipid metabolism; normal rats
  increased HDL lipids, especially HDL cholesterol: observed most dramatically
Lipid metabolism; rats
  increase in serum phospholipid: found to increase
  α-cholesterol/β-cholesterol ratio / lipoprotein cholesterol: highly significant activity
[1]
  alpha/beta Cholesterol Ratio: 9.69 ± 0.76
Lipoprotein cholesterol [2]; 40 mg/kg, female
  α-chol: 54 mg/dL
  α/β ratio: 6.0
  β-chol: 9.0 mg/dL
Lipoprotein cholesterol [2]; 40 mg/kg, male
  α-chol: 63 mg/dL
  α/β ratio: 7.6
  β-chol: 8.3 mg/dL
Lipoprotein cholesterol [2]; 400 mg/kg, female
  α-chol: 68 mg/dL
  α/β ratio: 11.5
  β-chol: 5.9 mg/dL
Lipoprotein cholesterol [2]; 400 mg/kg, male
  α-chol: 78 mg/dL
  α/β ratio: 11.5
  β-chol: 7.6 mg/dL
Lipoprotein cholesterol [2]; 800 mg/kg, female
  α-chol: 117 mg/dL
  α/β ratio: 11.3
  β-chol: 10.3 mg/dL
Lipoprotein cholesterol [2]; 800 mg/kg, male
  α-chol: 128 mg/dL
  α/β ratio: 10.7
  β-chol: 11.9 mg/dL
Lipoprotein cholesterol [2]; high dose level (800 mg/kg)
  augmentation in serum HDL-C (α-cholesterol) above controls: ≤ 220%
Lipoprotein cholesterol [3]
  Total Cholesterol: 127.0 ± 68.0
  α-chol: 41.1 ± 11.1
  α/β-ratio: 0.94
  β-chol: 63.4 ± 43.0
Lipoprotein cholesterol [3]; listed as Cpd 16
  α/β-ratio: 0.94 ± 0.20
Liver cholesterol; 100 mg/kg/day
  Liver Cholesterol: 3.1 ± 1.2 mg/g
  Liver Cholesterol Free/Ester Ratio: 2.23 ± 0.27
  Liver Phospholipids: 20.7 ± 2.7 mg/g
  Liver Total Lipids: 20.5 ± 3.4 mg/g
  Liver/Body Weight % Change: +8%
Liver cholesterol; 200 mg/kg/day
  Liver Cholesterol: 3.9 ± 1.4 mg/g
  Liver Cholesterol Free/Ester Ratio: 2.24 ± 0.46
  Liver Phospholipids: 26.3 ± 3.1 mg/g
  Liver Total Lipids: 25.9 ± 2.9 mg/g
  Liver/Body Weight % Change: +12%
Liver cholesterol; cholesterol pre-fed rabbits
  pre-established cholesterol deposits, liver: effectively decreased the pre-established cholesterol deposits
α/β cholesterol ratio; +1h
  α/β cholesterol ratio: 0.71
α/β cholesterol ratio; +2h
  α/β cholesterol ratio: 0.82
α/β cholesterol ratio; +3h
  α/β cholesterol ratio: 0.83
α/β cholesterol ratio; +5h
  α/β cholesterol ratio: 0.89
α/β cholesterol ratio; +6h
  α/β cholesterol ratio: 0.92
α/β cholesterol ratio; additional administration, 5 days
  α/β ratio: 0.88
α/β cholesterol ratio; single oral dose 250 mg/kg, 6 hours
  increase in α/β cholesterol levels: 39%
Lipoprotein cholesterol [4]; 45 days, 25 mg/kg/day
  Total Cholesterol: 99 ± 8 mg/100 ml
  alpha Cholesterol: 54 ± 5 mg/100 ml
  alpha/beta Cholesterol Ratio: 1.17
  beta Cholesterol: 46 ± 4 mg/100 ml
Lipoprotein cholesterol [4]; [5]
  Total Cholesterol: 85 ± 7 mg/100 ml
  alpha Cholesterol: 46 ± 4 mg/100 ml
  alpha/beta Cholesterol Ratio: 1.09
  beta Cholesterol: 41 ± 5 mg/100 ml
Lipoprotein cholesterol [4]; normal monkeys
  HDL (α-cholesterol) and α/β ratio: augmentation in HDL (α-cholesterol) and a significant increase in α/β ratio
Lipoprotein cholesterol [4]; normal monkeys, treated vs controls
  blood urea levels: significantly lower
